According to ChEMBL document CHEMBL1124907, “Synthesis and antiviral activity of some 3'-C-difluoromethyl and 3'-deoxy-3'-C-fluoromethyl nucleosides” (J Med Chem, 1990):
In brackets after ≈: the same amount, converted by molar mass.

What was measured:
[1] = test system: CV-1; assay: Inhibitory effect on Varicella zoster virus in CV-1 cells; format: functional, cell-based, Cercopithecidae; conditions: Chlorocebus aethiops
[2] = test system: MT4; assay: Inhibitory effect on human immunodeficiency virus type-1 (HIV-1) in MT-4 cells; format: functional; conditions: read-out: ID50 (the source's name)

| SMILES | IC50 [1] | IC50 [2] |
| --- | --- | --- |
| O=c1[nH]c(=O)n(C2O[C@H](CO)[C@H](CF)[C@@H]2F)cc1I (some centres not stated) | 5.3 µg/mL (≈ 13.7 µM) | – |
| Cc1cn([C@H]2C[C@H](F)[C@@H](CO)O2)c(=O)[nH]c1=O [ALOVUDINE] | – | 50 nM |
